Laboratory results published in patent US20070167499A1, “Biaryl linked hydroxamates: preparation and pharmaceutical applications” (A*BIO Pte Ltd., priority 2003, published 2007).

Columns and labels:
HDAC1 enzyme (GST-HDAC1) = target: T1, HDAC1 enzyme (GST-HDAC1) (Homo sapiens, UniProt Q13547); experiment: In vitro HDAC assay for determination of IC50 values (BIOMOL fluorescent-based HDAC activity assay), HDAC1; type: biochemical; settings: 600 nM HDAC1 enzyme, 500 μM Flur de lys generic substrate, room temperature 2 h
T1 construct: Amplification of human HDAC1 and HDAC8 coding region from this cDNA library; made in house; host or cells: SF9 insect cells (baculovirus, pDEST20 vector)
T1 sequence (Q13547 whole entry): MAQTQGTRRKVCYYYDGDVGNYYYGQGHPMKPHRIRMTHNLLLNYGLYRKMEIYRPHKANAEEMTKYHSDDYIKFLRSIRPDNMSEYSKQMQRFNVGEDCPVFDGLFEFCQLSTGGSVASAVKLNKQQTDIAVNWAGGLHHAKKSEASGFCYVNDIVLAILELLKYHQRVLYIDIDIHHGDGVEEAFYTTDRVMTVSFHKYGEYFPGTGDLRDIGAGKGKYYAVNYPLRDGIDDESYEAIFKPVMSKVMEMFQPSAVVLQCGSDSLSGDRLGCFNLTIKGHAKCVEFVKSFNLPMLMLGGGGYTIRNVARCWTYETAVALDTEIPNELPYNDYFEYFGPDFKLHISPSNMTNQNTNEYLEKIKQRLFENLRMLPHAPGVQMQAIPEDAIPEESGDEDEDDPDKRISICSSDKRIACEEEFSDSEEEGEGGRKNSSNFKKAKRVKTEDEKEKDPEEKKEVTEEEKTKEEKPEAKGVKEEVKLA
Method: Recombinant GST-HDAC1 and GST-HDAC-8 Protein expression and purification
Human cDNA library was prepared using cultured SW620 cells. Amplification of human HDAC1 and HDAC8 coding region from this cDNA library was cloned separately into the baculovirus expression pDEST20 vector and pFASTBAC vector respectively (GATEWAY Cloning Technology, Invitrogen Pte Ltd). The pDEST20-HDAC1 and pFASTBAC-HTGST-HDAC8 constructs were confirmed by DNA sequencing. Recombinant baculovirus was prepared using the Bac-To-Bac method following the manufacturer's instruction (Invitrogen Pte Ltd). Baculovirus titer was determined by plaque assay to be about 10^8 PFU/ml.
Expression of GST-HDAC1 or HTGST-HDAC8 was done by infecting SF9 cells (Invitrogen Pte Ltd) with pDEST20-HDAC1 or pFASTBAC-GST-HDAC8 baculovirus at MOI=1 for 48 h. Soluble cell lysate was incubated with pre-equilibrated Glutathione Sepharose 4B beads (Amersham) at 4° C. for 2 h. The beads were washed with PBS buffer for 3 times. The GST-HDAC1 protein or GST-HDAC8 protein was eluted by elution buffer containing 50 mM Tris, pH8.0, 150 mM NaCl, 1% Triton X-100 and 10 mM or 20 mM reduced Glutathione. The purified GST-HDAC1 protein or purified GST-HDAC8 protein was dialyzed with HDAC storage buffer containing 10 mM Tris, pH7.5, 100 mM NaCl and 3 mM MgCl2. 20% Glycerol was added to purified GST-HDAC1 protein or purified GST-HDAC8 before storage at −80° C.
In vitro HDAC assay for determination of IC50 values
The assay has been carried out in 96 well format and the BIOMOL fluorescent-based HDAC activity assay has been applied. The reaction composed of assay buffer, containing 25 mM Tris pH 7.5, 137 mM NaCl, 2.7 mM KCl, 1 mM MgCl2, 1 mg/ml BSA, tested compounds, 500 nM HDAC8 enzyme or 600 nM HDAC1 enzyme, 200 μM Flur de lys p53 peptide substrate for HDAC8 enzyme or 500 μM Flur de lys generic substrate for HDAC1 enzyme and subsequently was incubated at room temperature for 2 h. Flur de lys Developer was added and the reaction was incubated for 10 min. Briefly, deacetylation of the substrate sensitizes it to the developer, which then generates a fluorophore The fluorophore is excited with 360 nm light and the emitted light (460 nm) is detected on a fluorometric plate reader (Tecan Ultra Microplate detection system, Tecan Group Ltd.).
The analytical software, Prism 3.0® (GraphPad Software Inc) has been used to generate IC50 from a series of data.

Colo205 = experiment: Cell-based proliferation assay for determination of GI50 values, colon cancer cell line; settings: Homo sapiens, COLO 205; 96 h treatment, cyquant cell proliferation assay; read-out: Cellular activities GI50, Colo205
Method: Cell-based Proliferation assay for determination of GI50 values
Three different cancer cell lines were obtained from ATCC: Human colon cancer cell line (Colo205), human breast cancer cell lines (MDA-MB435), and human lung cancer cell line (NCl-H522). Colo205 cells and NCl-H522 were cultivated in RPMI 1640 containing 2 mM
L-Glutamine, 5% FBS, 1.0 mM Na Pyruvate. MDA-MB435 cells were cultivated in DMEM containing 2 mM L-Glutamine, 5% FBS. Colo205 cells were seeded in 96-wells plate at 2000 and 5000 cells per well respectively. MDA-MB435 and NCl-H522 cells were seeded in 96-wells plate at 6000 cells per well. The plates were incubated at 37° C., 5% CO2, for 24 h. Cells were treated with compounds at various concentrations for 96 h. Cell growth was then monitored using cyquant cell proliferation assay (Invitrogen Pte Ltd). Dose response curves were plotted to determine GI50 values for the compounds using XL-fit (ID Business Solution, Emeryville, Calif.).

[1] = tested on: acetylated H3 in Colo205 cells; experiment: Histone H3 acetylation assay (western-blot); type: cell-based, human; parameters: key: “Active” means accumulation of acetylated histone was observed when compared with control (without compound); settings: for Histone 3 acetylation: Colo205 cells, 0.1, 1, 5 and 10 μM, after 24 h
Method: Histone H3, H4 and H2A acetylation assay
A hallmark of histone deacetylase (HDAC) inhibition is the increase in the acetylation level of histones. Histone acetylation, including H3, H4 and H2A can be detected by immuno-blotting (western-blot). Colo205 cells, approximately 1.5×10^6 cells/10 cm dish, were seeded in the previously described medium, cultivated for 24 h and subsequently treated with HDAC inhibitory agents at 0.1, 1, 5 and 10 μM final concentration. […] The protein concentration was quantified using BCA method (Sigma Pte Ltd). The protein lysate was separated using 4-12% bis-tris SDS-PAGE gel (Invitrogen Pte Ltd) and was transferred onto PVDF membrane (BioRad Pte Ltd). The membrane was probed separately using primary antibody specific for acetylated H3, acetylated H4 or acetylated H2A (Upstate Pte Ltd). The detection antibody, goat anti rabbit antibody conjugated with horse radish peroxidase (HRP) was used according to the manufacturing instruction (Pierce Pte Ltd). After removing the detection antibody from the membrane, an enhanced chemiluminescent substrate for detection of HRP (Pierce Pte Ltd) was added onto the membrane. After removing the substrate, the membrane was exposed to an X-ray film (Kodak) for 1 sec-20 mins. The X-ray film was developed using the X-ray film processor. The density of each band observed on the developed film could be analysed using UVP Bioimaging software (UVP, Inc, Upland, Calif.). The values were then normalized against the density of actin in the corresponding samples to obtain the expression of the protein.

| IC50 (HDAC1 enzyme (GST-HDAC1)) [nM] | GI50 (Colo205) [nM] | SMILES | Histone 3 acetylation [1] | Histone 3 acetylation (after 48 hrs) ([1]; Colo205 cells, after 48 hrs) |
| --- | --- | --- | --- | --- |
| 510 | 7720 | Nc1nc(-c2ccc(/C=C/C(=O)NO)cc2)cs1 [Example 23, 3-[4-(2-Amino-thiazol-4-yl)-phenyl]-N-hydroxy-acrylamide] | Active |  |
| 200 | 2390 | O=C(NO)c1ccc(-c2ccc(CNCCc3ccccn3)cc2)s1 [Example 27] | Active |  |
| > 100000 | 12100 | O=C(Cc1ccc(-c2csc(NC(=O)Cc3ccccc3)n2)s1)NO [Example 1, N-Hydroxy-2-[5-(2-phenylacetylamino-thiazol-4-yl)-thiophen-2-yl]-acetamide] |  | Active (after 48 hrs) |
| 66 | 1860 | O=C(NO)c1ccc(-c2ccc(CNCCc3ccccc3)cc2)s1 [Example 26, 5-[4-(Phenethylamino-methyl)-phenyl]-thiophene-2-carboxylic acid hydroxyamide] | Active |  |
